Laboratory results from PMC4854315, “Discovery of a novel allosteric inhibitor-binding site in ERK5: comparison with the canonical kinase hinge ATP-binding site” (Acta Crystallographica. Section D, Structural Biology, 2016).

Legend:
Experiment in all cases: Z'-LYTE kinase panel
Assay type in all cases: biochemical
[1] = biological target: T1, RPS6KA1 (RSK1) (Homo sapiens, UniProt Q15418)
T1 construct: purchased ThermoFisher (SelectScreen, Z'-LYTE)
Outline: (§1)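 Compounds were profiled across a 225-kinase standard panel. Each kinase was run in the standard Z′-LYTE assay and percentage inhibition was recorded at a compound concentration of 10 µM.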

[2] = biological target: T2, MUSK (Homo sapiens, UniProt O15146)
T2 construct: purchased ThermoFisher (SelectScreen, Z'-LYTE)
T2 sequence (O15146 24-869): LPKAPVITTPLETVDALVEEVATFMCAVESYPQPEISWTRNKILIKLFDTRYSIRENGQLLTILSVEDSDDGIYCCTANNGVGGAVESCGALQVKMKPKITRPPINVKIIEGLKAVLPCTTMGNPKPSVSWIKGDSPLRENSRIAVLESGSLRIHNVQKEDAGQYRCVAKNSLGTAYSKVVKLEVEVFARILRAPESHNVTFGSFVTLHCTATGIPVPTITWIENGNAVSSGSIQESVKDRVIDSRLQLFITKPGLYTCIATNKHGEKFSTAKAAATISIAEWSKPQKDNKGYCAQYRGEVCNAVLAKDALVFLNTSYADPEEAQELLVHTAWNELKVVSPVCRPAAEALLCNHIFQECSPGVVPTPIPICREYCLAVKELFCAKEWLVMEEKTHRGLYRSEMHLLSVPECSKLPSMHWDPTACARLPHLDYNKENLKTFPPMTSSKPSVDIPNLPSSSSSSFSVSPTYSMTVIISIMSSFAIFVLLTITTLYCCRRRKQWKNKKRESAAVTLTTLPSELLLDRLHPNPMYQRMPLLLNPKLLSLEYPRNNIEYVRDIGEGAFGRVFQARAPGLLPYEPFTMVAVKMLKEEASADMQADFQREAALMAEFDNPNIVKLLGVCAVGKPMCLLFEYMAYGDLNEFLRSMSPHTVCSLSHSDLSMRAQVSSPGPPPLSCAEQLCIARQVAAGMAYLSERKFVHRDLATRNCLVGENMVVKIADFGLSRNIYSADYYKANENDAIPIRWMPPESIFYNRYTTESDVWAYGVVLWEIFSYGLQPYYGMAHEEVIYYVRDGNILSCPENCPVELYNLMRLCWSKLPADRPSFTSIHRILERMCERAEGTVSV
Outline: as §1

[3] = biological target: T3, STK22D (TSSK1) (Homo sapiens, UniProt Q9BXA7)
T3 construct: purchased ThermoFisher (SelectScreen, Z'-LYTE)
T3 sequence (Q9BXA7 1-367): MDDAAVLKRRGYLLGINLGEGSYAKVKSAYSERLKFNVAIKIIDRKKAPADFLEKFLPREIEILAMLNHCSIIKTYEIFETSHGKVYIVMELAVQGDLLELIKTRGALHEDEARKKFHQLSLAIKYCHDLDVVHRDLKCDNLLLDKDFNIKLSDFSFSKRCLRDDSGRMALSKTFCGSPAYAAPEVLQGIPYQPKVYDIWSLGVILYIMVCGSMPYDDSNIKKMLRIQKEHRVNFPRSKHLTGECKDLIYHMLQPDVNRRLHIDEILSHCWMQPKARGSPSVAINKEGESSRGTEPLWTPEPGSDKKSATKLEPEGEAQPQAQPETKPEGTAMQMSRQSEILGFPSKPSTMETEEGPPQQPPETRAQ
Outline: as §1

[4] = biological target: T4, ZAP70 (Homo sapiens, UniProt P43403)
T4 construct: purchased ThermoFisher (SelectScreen, Z'-LYTE)
T4 sequence (P43403 1-619): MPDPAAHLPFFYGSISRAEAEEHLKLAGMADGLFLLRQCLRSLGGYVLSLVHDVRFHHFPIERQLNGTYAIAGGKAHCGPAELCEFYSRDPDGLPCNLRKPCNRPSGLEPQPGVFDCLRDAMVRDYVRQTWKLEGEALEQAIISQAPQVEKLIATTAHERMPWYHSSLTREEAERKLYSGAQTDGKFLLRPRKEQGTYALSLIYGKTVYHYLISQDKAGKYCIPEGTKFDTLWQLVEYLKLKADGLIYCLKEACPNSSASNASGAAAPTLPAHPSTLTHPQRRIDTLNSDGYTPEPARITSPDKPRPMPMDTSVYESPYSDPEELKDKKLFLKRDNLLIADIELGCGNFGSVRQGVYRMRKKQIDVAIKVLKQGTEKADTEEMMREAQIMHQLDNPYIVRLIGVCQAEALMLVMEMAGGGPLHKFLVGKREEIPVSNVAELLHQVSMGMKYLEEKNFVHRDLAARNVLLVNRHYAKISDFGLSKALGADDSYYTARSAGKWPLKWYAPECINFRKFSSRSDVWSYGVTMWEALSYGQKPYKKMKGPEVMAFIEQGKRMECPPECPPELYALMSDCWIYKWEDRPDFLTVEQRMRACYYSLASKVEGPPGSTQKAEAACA
Outline: as §1

[5] = biological target: T5, PAK7 (KIAA1264) (Homo sapiens, UniProt Q9P286)
T5 construct: purchased ThermoFisher (SelectScreen, Z'-LYTE)
Outline: as §1

[6] = biological target: T6, ADRBK1 (GRK2) (Homo sapiens, UniProt P25098)
T6 construct: purchased ThermoFisher (SelectScreen, Z'-LYTE)
T6 sequence (P25098 1-689): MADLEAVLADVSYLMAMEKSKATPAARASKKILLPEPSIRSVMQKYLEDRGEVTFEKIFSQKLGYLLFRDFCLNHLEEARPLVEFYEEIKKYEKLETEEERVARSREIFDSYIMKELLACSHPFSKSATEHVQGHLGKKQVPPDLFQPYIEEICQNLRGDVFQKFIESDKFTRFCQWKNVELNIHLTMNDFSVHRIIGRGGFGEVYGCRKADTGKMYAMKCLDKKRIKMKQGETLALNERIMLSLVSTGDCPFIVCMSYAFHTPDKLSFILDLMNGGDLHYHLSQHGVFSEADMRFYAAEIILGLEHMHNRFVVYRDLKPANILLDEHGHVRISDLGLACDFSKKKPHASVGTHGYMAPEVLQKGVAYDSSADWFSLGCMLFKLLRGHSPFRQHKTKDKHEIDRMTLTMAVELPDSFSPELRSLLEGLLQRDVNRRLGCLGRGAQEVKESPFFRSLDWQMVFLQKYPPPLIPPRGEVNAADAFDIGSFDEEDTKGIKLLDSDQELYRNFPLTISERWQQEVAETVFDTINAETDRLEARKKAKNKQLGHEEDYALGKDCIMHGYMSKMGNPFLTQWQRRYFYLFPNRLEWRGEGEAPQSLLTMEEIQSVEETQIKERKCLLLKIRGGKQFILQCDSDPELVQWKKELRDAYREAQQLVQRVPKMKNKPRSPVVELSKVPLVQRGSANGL
Outline: as §1

[7] = biological target: T7, MAPK9 (JNK2) (Homo sapiens, UniProt P45984); conditions: 10 µM compound; ATP 100
T7 construct: purchased ThermoFisher (SelectScreen, Z'-LYTE)
Outline: as §1

T5 sequence (Q9P286 whole entry): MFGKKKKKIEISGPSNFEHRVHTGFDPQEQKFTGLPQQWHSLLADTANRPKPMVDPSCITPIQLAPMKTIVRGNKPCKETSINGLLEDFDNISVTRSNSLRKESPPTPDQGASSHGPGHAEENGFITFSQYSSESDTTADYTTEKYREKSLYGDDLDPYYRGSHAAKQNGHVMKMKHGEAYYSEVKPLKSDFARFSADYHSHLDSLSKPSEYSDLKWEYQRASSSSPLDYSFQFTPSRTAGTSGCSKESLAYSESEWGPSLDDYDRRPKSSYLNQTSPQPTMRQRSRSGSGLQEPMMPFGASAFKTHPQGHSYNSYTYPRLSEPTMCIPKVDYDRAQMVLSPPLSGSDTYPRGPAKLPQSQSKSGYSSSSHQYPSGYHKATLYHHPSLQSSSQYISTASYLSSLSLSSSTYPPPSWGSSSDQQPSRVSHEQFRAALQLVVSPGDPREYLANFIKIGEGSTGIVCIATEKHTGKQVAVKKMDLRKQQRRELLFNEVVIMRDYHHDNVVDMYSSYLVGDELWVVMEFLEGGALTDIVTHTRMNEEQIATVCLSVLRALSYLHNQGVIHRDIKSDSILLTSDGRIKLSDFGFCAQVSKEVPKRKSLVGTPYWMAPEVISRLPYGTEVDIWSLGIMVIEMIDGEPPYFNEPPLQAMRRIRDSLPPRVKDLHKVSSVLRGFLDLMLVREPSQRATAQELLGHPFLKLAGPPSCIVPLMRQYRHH
T1 sequence (Q15418 whole entry): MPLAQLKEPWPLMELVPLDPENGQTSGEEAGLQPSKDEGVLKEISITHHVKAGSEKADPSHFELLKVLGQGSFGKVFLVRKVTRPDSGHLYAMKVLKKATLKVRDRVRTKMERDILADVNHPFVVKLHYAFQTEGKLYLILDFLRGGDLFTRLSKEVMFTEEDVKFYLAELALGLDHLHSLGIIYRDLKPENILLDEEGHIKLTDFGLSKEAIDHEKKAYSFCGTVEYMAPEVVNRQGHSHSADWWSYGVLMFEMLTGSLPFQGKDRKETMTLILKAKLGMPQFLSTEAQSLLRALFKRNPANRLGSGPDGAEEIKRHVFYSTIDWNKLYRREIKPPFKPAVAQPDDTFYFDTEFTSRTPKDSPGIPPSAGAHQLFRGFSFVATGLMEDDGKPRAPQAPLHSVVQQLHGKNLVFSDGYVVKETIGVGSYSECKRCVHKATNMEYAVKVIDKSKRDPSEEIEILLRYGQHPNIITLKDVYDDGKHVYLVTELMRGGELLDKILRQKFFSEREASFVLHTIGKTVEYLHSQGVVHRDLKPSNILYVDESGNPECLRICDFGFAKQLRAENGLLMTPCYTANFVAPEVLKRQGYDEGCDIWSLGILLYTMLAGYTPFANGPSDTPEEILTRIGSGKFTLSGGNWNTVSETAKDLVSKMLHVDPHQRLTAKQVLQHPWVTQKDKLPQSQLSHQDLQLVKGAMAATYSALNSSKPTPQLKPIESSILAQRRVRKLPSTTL

Compound | inhibition at 10 µM [1] [%] | inhibition at 10 µM [2] [%] | inhibition at 10 µM [3] [%] | inhibition at 10 µM [4] [%] | inhibition at 10 µM [5] [%] | inhibition at 10 µM [6] [%] | inhibition at 10 µM [7] [%] | RPS6KA1 (RSK1) % Inhibition ([1]; 10 µM compound, ATP Km app) [%] | MUSK % Inhibition ([2]; 10 µM compound, ATP Km app) [%] | STK22D (TSSK1) % Inhibition ([3]; 10 µM compound, ATP Km app) [%] | ZAP70 % Inhibition ([4]; 10 µM compound, ATP Km app) [%] | PAK7 (KIAA1264) % Inhibition ([5]; 10 µM compound, ATP Km app) [%] | ADRBK1 (GRK2) % Inhibition ([6]; 10 µM compound, ATP Km app) [%] | MAPK9 (JNK2) % Inhibition [7] [%]
Cc1ncc(-c2nc(Nc3ccc(C(=O)NCCN4CCCCC4)cc3)ncc2F)n1C(C)C [Compound 3] | 69 | 92 | 81 | 19 | 71 | 17 | 103 | – | – | – | – | – | – | –
Cc1cc(Nc2nc(N)nn2C(=O)NC(C)C)ccc1Cl [Compound 5] | 36 | 22 | 21 | 12 | 26 | -0.227 | 4.72 | – | – | – | – | – | – | –
XMD8-92 [Compound 2, reference compound] | – | – | – | – | – | – | – | 5.45 | 21 | 11 | 12 | 6 | -1 | 5.42
